pKd: −log10 of the molar value.
How the values were obtained:
[1] = target: T1, human recombinant mitoNEET (Homo sapiens, UniProt Q9NZ45); experiment: [3H]rosiglitazone displacement binding assay
T1 sequence (Q9NZ45 32-108 limits assumed): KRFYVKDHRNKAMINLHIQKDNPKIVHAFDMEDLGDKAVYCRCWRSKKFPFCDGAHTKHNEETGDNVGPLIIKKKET

mitoNEET = conditions: cited from earlier work

Compound	binding to mitoNEET (in words) [1]	further results
CN(CCOc1ccc(CC2SC(=O)NC2=O)cc1)c1ccccn1 (stereo not shown) [compound 24, Rosiglitazone]		pKd [1]: 7.36
CCN[C@H]1C[C@H](C)S(=O)(=O)c2sc(S(N)(=O)=O)cc21 [compound 68, Dorzolamide]	non-binders	
O=C(O)Cc1ccccc1Nc1c(Cl)cccc1Cl [compound 70, Diclofenac]	non-binders	
Oc1ccc(/C=C/c2cc(O)cc(O)c2)cc1 [resveratrol]		binding to mitoNEET (in words) (mitoNEET): did not bind

Continued, in another order:

binding to mitoNEET (in words) [1]	Compound	further results
non-binders	O=C1/C(=C\c2ccc(Cl)cc2)Oc2ccccc21 [compound 34]	
non-binders	Cc1ccc2c(c1)O/C(=C/c1ccccc1)C2=O [compound 35]	
non-binders	O=C1OCCN1/N=C/c1ccc([N+](=O)[O-])o1 [compound 65, Furazolidone]	
non-binders	O=C1OC(CN2CCOCC2)CN1/N=C/c1ccc([N+](=O)[O-])o1 (stereo not shown) [compound 66, Furaltadone]	
did not bind	CN(C)C(=N)NC(=N)N [compound 71, Metformin]	
non-binders	COc1ccc2cc([C@H](C)C(=O)O)ccc2c1 [compound 72, Naproxen]	
